Here are results for 16 compounds from patent US11459330B2, “Substituted bicyclic heterocyclic compounds as PRMT5 inhibitors” (LUPIN LIMITED, priority 2017, dated 2022).

pIC50: −log10 of the molar value.

Assay [1] has as its system Z-138 cells. Description: Anti-cancer assay (Z-138), cell viability CellTiterGlo. The following applies: Homo sapiens, 96 h, activity range, lower bound in pM, upper bound in nM. Format: cell-based. Here is the method:
(§1) Anticancer Activity Assay
(§2) Z-138 cells were seeded at a density of 2000-3000 cells per well in culture media (IMDM+10% FBS). PANC-1 (ATCC, CRL-1469™) and MIA PaCa-2 (ATCC, CRL-1420™) cells were seeded at a density of 200-300 cells per well in culture media (DMEM+10% FBS). Cells were seeded in opaque, flat bottomed tissue culture grade 96-well plates and Z-138 cells (suspension) were seeded and treated on the same day with various concentrations of test compounds. PANC-1 and MIA PaCa-2 cells, being adherent, were kept for overnight settlement at standard cell culture conditions (37° C., 5% CO2). On the following day, cells were treated with various concentrations of test compounds. Cells were treated with test compounds for a period of 96 h, 7 days and 10 days, for Z-138 cells, PANC-1 cells and MIA PaCa-2 cells, respectively. Cell viability was assessed using CellTiterGlo™ (Promega, USA) as per manufacturer's instructions. Relative Light Units (RLU) were read in Synergy™ 2 reader (Biotek, USA). The assay measures cellular ATP as an indicator of cell viability. RLU is proportional to the number of viable cells in the respective well.
(§3) % inhibition of cell viability was calculated relative to the vehicle control samples containing media with 0.1% DMSO alone as per the formula below. (Avg. of Untreated Control−Avg. of Test)×100 Avg. of Untreated Control
(§4) The IC50 values of individual compounds were calculated with Non Linear Regression Analysis using Graph Pad Prism (Graph Pad software, Inc, USA).
Anti-Cancer Assay (Z-138)

In assay [2] the target is PRMT5:MEP50 (Homo sapiens, UniProt O14744). Description: PRMT5 biochemical HTRF assay (Biochemical Assay Protocol 1 / 2). Conditions: biotinylated H4R3 substrate, 1 μM SAM, protocol 1 or 2 not given, activity range 300 pM to 950 pM, read-out: IC50 (PRMT5 inhibition), activity range. Here is the method: Biochemical Assay Protocol 1
(§5) Inhibitory effect of compounds on PRMT5 was assessed using HTRF detection technology in biochemical assay. Biotinylated H4R3 (residues 1-21) was used as a substrate. Compounds were pre-incubated with 15-25 ng PRMT5:MEP50 per well of a 384-well plate for 30 min at room temperature in the assay buffer containing 20 mM Bicine, pH 7.6, 25 mM NaCl, 2 mM DTT, 0.01% Chicken albumin and 0.01% Tween-20. Reaction was initiated by adding 1 μM of SAM and 50 nM biotinylated H4R3. Total assay volume was 15 μL. Reaction was continued for 120 min at room temperature. Then detection solution containing Streptavidin-Eu cryptate, anti-rabbit IgG-XL-665, Histone H4R3 Dimethyl Symmetric (H4R3me2s) Polyclonal Antibody, all prepared in HTRF detection buffer was added and further incubated for 30 min at room temperature. HTRF signal was recorded in PHERAStar microplate reader. Ratio of signal obtained at 665 nm and 620 nm was used to compute the percent inhibition of compound as follows % Inhibition=100−((Test Ratio−Negative control Ratio)/(Positive control Ratio−Negative control Ratio)*100) where Positive control=PRMT5+SAM+H4R3 Negative control=PRMT5+H4R3 Biochemical Assay Protocol 2
as §5, with “2.5” for “15-25”, “4 h” for “120 min”, “control=PRMT5+H4R3” for “control=PRMT5+H4R3 Biochemical Assay Protocol 2”
(Time-resolved FRET reads energy transfer from a long-lived donor to a nearby acceptor.)

Assay [3] deals with PANC-1 cells. In words: Anti-cancer assay (Panc-1), cell viability CellTiterGlo. The following applies: Homo sapiens, PANC-1, 168 h, 7 days; for IC50: activity range, lower bound in pM, upper bound in nM; for pIC50: activity range 20 nM to 100 nM. Format: cell-based. As to the method: as §1, §2, §3, §4
Anti-Cancer Assay (Panc-1)

In assay [4] the test system is Z-138 cells. In words: SDMA inhibition assay. In kind it is cell-based. Conditions: Homo sapiens, 48 h, activity range 1.1 nM to 50 nM. Here is the method:
SDMA Inhibition Assay Protocol Z-138 cells (ATCC, CRL-3001™) were seeded at a density of 1 million cells/well in transparent, flat bottomed tissue culture grade 48-well plates. Cells were treated with various concentration of test compounds for a period of 48 h. Cell lysate was prepared using 1×CST Lysis buffer (Cell Signaling Technology, USA) and 500 ng/well/50 μL of lysate in pH 9.6 carbonate buffer was coated on 96-well Maxisorb plate and incubated overnight at 4° C. The plate was washed twice in 1×PBS containing 0.05% Tween 20 and blocked in 1% BSA for 1 h at ambient temperature. Further, the plate was incubated first with primary antibody (anti-SDMA antibody; CST #13222s) at ambient temperature for 2 h and then with HRP-conjugated secondary antibody at ambient temperature for 1 h with 2 intermittent washing steps in between.
For luminiscence based detection, HRP substrates (substrate A+substrate B in a 1:1 proportion) were added followed by luminiscence reading after 30 min in Synergy™ 2 reader (Biotek, USA).
For absorbance based detection, TMB substrate was added followed by addition of STOP solution (2N H2SO4) post colour development and absorbance ([…]) was measured in Synergy™ 2 reader (Biotek, USA). % inhibition of SDMA was calculated relative to the vehicle control samples containing media with 0.1% DMSO alone as per the formula below. (Avg. of Untreated Control−Avg. of Test)×100 Avg. of Untreated Control
as §4

PRMT5:MEP50, sequence (O14744 whole entry, the tested form may be a part): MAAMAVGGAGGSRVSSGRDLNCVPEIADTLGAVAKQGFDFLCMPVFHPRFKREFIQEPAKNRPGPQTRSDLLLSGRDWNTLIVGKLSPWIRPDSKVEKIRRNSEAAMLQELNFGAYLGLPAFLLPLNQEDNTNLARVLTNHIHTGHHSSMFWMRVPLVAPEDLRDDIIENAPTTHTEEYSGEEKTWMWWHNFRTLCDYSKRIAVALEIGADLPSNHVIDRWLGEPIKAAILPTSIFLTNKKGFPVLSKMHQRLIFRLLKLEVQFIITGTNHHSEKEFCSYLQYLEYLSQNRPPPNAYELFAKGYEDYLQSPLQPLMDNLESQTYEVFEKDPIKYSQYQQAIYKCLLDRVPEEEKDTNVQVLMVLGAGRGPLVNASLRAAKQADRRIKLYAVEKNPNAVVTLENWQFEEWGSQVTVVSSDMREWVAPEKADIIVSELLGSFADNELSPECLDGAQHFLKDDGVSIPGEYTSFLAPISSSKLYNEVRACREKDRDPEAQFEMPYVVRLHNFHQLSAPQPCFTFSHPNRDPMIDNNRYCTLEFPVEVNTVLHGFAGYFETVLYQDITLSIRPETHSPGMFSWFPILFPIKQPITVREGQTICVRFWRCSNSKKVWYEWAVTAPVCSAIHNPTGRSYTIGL
PRMT5:MEP50, sequence (Q9BQA1 whole entry partner, the tested form may be a part): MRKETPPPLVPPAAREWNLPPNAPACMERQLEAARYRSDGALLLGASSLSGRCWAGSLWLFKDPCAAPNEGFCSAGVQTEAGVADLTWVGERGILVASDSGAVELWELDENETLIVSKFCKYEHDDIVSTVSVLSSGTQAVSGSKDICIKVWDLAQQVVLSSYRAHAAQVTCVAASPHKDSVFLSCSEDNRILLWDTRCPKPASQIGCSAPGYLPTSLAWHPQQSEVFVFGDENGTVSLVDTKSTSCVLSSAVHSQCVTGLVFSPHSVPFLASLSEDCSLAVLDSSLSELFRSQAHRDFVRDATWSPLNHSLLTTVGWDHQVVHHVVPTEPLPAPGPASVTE

`CC(Oc1cc(F)c2cc(Cl)c(N)nc2c1)C1=C[C@@H](n2ccc3c(N)ncnc32)[C@H](O)[C@@H]1O` (stereo partly drawn) [Compound-20b, (1S,2R,5R)-3-(1-((2-amino-3-chloro-5-fluoroquinolin-7-yl)oxy)ethyl)-5-(4-amino-7H-pyrrolo[2,3-d]pyrimidin-7-yl)cyclopent-3-ene-1,2-diol]: the 50% inhibitory concentration (IC50) in assay [1] lay within 101 to 1000 pM.
Consider `Nc1nc2c(F)c(CCC3=C[C@@H](n4ccc5c(N)ncnc54)[C@H](O)[C@@H]3O)ccc2cc1Cl` [Compound-26, (1S,2R,5R)-3-(2-(2-amino-3-chloro-8-fluoroquinolin-7-yl)ethyl)-5-(4-amino-7H-pyrrolo[2,3-d]pyrimidin-7-yl)cyclopent-3-ene-1,2-diol], for which, in assay [1], the IC50 lay in the range of 101 to 1000 pM. Moreover, the pIC50 in assay [2] is 9.02 to 9.52.
In the case of `CC(Cc1ccc2cc(Br)c(N)nc2c1)C1=C[C@@H](n2ccc3c(N)ncnc32)[C@H](O)[C@@H]1O` (stereo partly drawn) [7b, (1S,2R,5R)-3-(1-(2-Amino-3-bromoquinolin-7-yl)propan-2-yl)-5-(4-amino-7H-pyrrolo[2,3-d]pyrimidin-7-yl)cyclopent-3-ene-1,2-diol], the IC50 lay in the range of 101 to 1000 pM in assay [1] and 300 to 20000 pM in assay [3].
Turning to `CC(Cc1cc(F)c2cc(Cl)c(N)nc2c1)C1=C[C@@H](n2ccc3c(N)ncnc32)[C@H](O)[C@@H]1O` (single isomer, unassigned) [Compound-33a], the negative logarithm of the IC50 (pIC50) is 7.00 to 7.70 in assay [3] and 7.30 to 8.96 in assay [4].
In the case of `Nc1nc2cc(CC[C@@]34C[C@@H]3[C@@H](n3ccc5c(N)ncnc53)[C@H](O)[C@@H]4O)c(F)cc2cc1Cl` [Compound-62, (1R,2R,3S,4R,5S)-1-(2-(2-Amino-3-chloro-6-fluoroquinolin-7-yl)ethyl)-4-(4-amino-7H-pyrrolo[2,3-d]pyrimidin-7-yl) bicyclo[3.1.0]hexane-2,3-diol], the concentration for half-maximal inhibition (IC50) in assay [1] was 101 to 1000 pM. Also, the pIC50 was 7.00 to 7.70 in assay [3] and 7.30 to 8.96 in assay [4].
In the case of `Cc1ncnc2c1ccn2[C@@H]1C=C(CCc2cc(F)c3cc(Cl)c(N)nc3c2)[C@@](C)(O)[C@H]1O` [Compound-39, (1S,2R,5R)-3-(2-(2-amino-3-chloro-5-fluoroquinolin-7-yl)ethyl)-2-methyl-5-(4-methyl-7H-pyrrolo[2,3-d]pyrimidin-7-yl)cyclopent-3-ene-1,2-diol], in assay [1], the half-maximal inhibitory concentration (IC50) fell in the range of 101 to 1000 pM. In addition, the pIC50 in assay [3] was 7.00 to 7.70.
`Nc1nc2cc(CC[C@@]34C[C@@H]3[C@@H](n3ccc5c(N)ncnc53)[C@H](O)[C@@H]4O)c(F)cc2cc1Br` [Compound-64, (1R,2R,3S,4R,5S)-1-(2-(2-amino-3-bromo-6-fluoroquinolin-7-yl)ethyl)-4-(4-amino-7H-pyrrolo[2,3-d]pyrimidin-7-yl)bicyclo[3.1.0]hexane-2,3-diol]: the results for the IC50 in assay [1] and in assay [3] were 101 to 1000 pM and 300 to 20000 pM, respectively. The pIC50 in assay [4] is 7.30 to 8.96.
Consider `CC(Cc1ccc2cc(Br)c(N)nc2c1)[C@@]12C[C@@H]1[C@@H](n1ccc3c(N)ncnc31)[C@H](O)[C@@H]2O` (single isomer, unassigned) [Compound-76a], for which the IC50 in assay [1] lay in the range of 101 to 1000 pM. The negative-log IC50 (pIC50) in assay [2] is 9.02 to 9.52; in assay [4], 7.30 to 8.96.
`Nc1nc2cc(CCC3=C[C@@H](n4ccc5c(N)ncnc54)[C@H](O)[C@@H]3O)c(F)cc2cc1Cl` [Compound-25, (1S,2R,5R)-3-(2-(2-amino-3-chloro-6-fluoroquinolin-7-yl)ethyl)-5-(4-amino-7H-pyrrolo[2,3-d]pyrimidin-7-yl)cyclopent-3-ene-1,2-diol]: the pIC50 in assay [2] was 9.02 to 9.52; in assay [4], 7.30 to 8.96. The half-maximal inhibitory concentration (IC50) in assay [3] was in the range of 300 to 20000 pM.
As for `Cn1cc(-c2ncnc3c2ccn3[C@@H]2C=C(CCc3cc(F)c4cc(Cl)c(N)nc4c3)[C@@H](O)[C@H]2O)cn1` [Compound-32, (1S,2R,5R)-3-(2-(2-amino-3-chloro-5-fluoroquinolin-7-yl)ethyl)-5-(4-(1-methyl-1H-pyrazol-4-yl)-7H-pyrrolo[2,3-d]pyrimidin-7-yl)cyclopent-3-ene-1,2-diol], the pIC50 in assay [4] is 7.30 to 8.96.
Turning to `Nc1ccc2c(F)cc(CCC3=C[C@@H](n4ccc5c(N)ncnc54)[C@H](O)[C@@H]3O)cc2n1` [Compound-47, (1S,2R,5R)-3-(2-(2-amino-5-fluoroquinolin-7-yl)ethyl)-5-(4-amino-7H-pyrrolo[2,3-d]pyrimidin-7-yl)cyclopent-3-ene-1,2-diol], the negative-log IC50 (pIC50) in assay [2] was 9.02 to 9.52. The half-inhibitory concentration (IC50) in assay [3] lay within 300 to 20000 pM.
On to `CC(Cc1ccc2cc(Br)c(N)nc2c1)C1=C[C@@H](n2ccc3c(N)ncnc32)[C@H](O)[C@@H]1O` (single isomer, unassigned) [Compound-7a], for which the negative-log IC50 (pIC50) in assay [2] was 9.02 to 9.52. Moreover, in assay [3], the concentration for half-maximal inhibition (IC50) lay in the range of 300 to 20000 pM.
For the compound `Cc1ncnc2c1ccn2[C@@H]1C=C(C(C)Cc2cc(F)c3cc(Cl)c(N)nc3c2)[C@@H](O)[C@H]1O` (single isomer, unassigned) [Compound-35b], the pIC50 was 9.02 to 9.52 in assay [2] and 7.30 to 8.96 in assay [4].
`Cc1ncnc2c1ccn2[C@@H]1C=C(CCc2ccc3cc(Cl)c(N)nc3c2)[C@@H](O)[C@H]1O` [Compound-21, (1S,2R,5R)-3-(2-(2-amino-3-chloroquinolin-7-yl)ethyl)-5-(4-methyl-7H-pyrrolo[2,3-d]pyrimidin-7-yl)cyclopent-3-ene-1,2-diol]: the pIC50 in assay [2] is 9.02 to 9.52. For the same compound, the half-inhibitory concentration (IC50) in assay [3] was in the range of 300 to 20000 pM.
For `Nc1nc2cc(CCC3=C[C@@H](n4ccc5c(N)ncnc54)[C@H](O)[C@@H]3O)ccc2cc1Cl` [Compound-2, (1S,2R,5R)-3-(2-(2-amino-3-chloroquinolin-7-yl)ethyl)-5-(4-amino-7H-pyrrolo[2,3-d]pyrimidin-7-yl)cyclopent-3-ene-1,2-diol] the same measures were 9.02 to 9.52 and 300 to 20000 pM.
For `Nc1nc2cc(CC[C@@]34C[C@@H]3[C@@H](n3ccc5c(N)ncnc53)[C@H](O)[C@@H]4O)ccc2cc1Cl` [Compound-61, (1R,2R,3S,4R,5S)-1-(2-(2-Amino-3-chloroquinolin-7-yl)ethyl)-4-(4-amino-7H-pyrrolo[2,3-d]pyrimidin-7-yl)bicyclo[3.1.0]hexane-2,3-diol] the same measures were 9.02 to 9.52 and 300 to 20000 pM.

The IC50 is the point on the concentration scale where inhibition reaches its midpoint. As usually defined, the pIC50 is the IC50 on a negative log10 scale, so that one unit is a factor of ten.
